Experimental data: article PMC6752957, “Beta-defensins and analogs in Helicobacter pylori infections: mRNA expression levels, DNA methylation, and antibacterial activity” (PLoS ONE, 2019)
No end group written: not given here.

Assays:
[1] = cited from earlier work; for antimicrobial activity at high NaCl concentrations: background statement of the introduction
Description: Defensins exert their killing activity against bacteria, yeasts, fungi, and viruses. The activity of antimicrobial peptides involves the initial electrostatic binding to the cell membrane of microorganisms and subsequent incorporation into the membrane. This antimicrobial action induces damage or even destruction of the microbial cell membrane via pore formation. […] We previously reported the killing activity of β-defensin ...

[2] = system: H. pylori (ATCC49503 (tox+ strain 60190)); assay: CFU assay of antimicrobial activity against H. pylori, with salt dependence; format: cell-based, Helicobacter pylori
Protocol: CFU assays of the antimicrobial activities of HBDs against H. pylori (ATCC49503 (tox+ strain 60190); American Type Culture Collection, ATCC) were performed. The toxin-producing H. pylori strain was revived from frozen stocks by seeding on a blood agar plate (7% horse blood) at 37°C for 3 days in microaerophilic conditions (O2:10% and […]) generated with Anaeropack Campylo (Mitsubishi Gas Chemicals Corp.). Bacteria harvested from the plates were suspended in 200 ml of brain heart infusion broth (10% fetal calf serum) and grown in liquid culture at 37°C for three days while shaking in a monitored microaerophilic atmosphere.
H. pylori was incubated with HBDs for two hours at 37°C. Two concentrations of peptides (2.5 μM and 12.5 μM) were used. For the salt dependence assay, 0, 50, 100, and 200 mM concentrations of NaCl were added in the incubation buffer as previously described. Each assay was done in triplicate.
Antimicrobial activity of HBD2-4 and the analogs 3N and 3NI was evaluated on H. pylori, cultured on HP agar for 4 d after a […] pre-incubation with or without chemically synthesized HBD-2-4 and 3N and 3NI analogs. The two peptide sequences are derived from HBD1 and HBD3. 3N analog is the HBD3 sequence without the N-terminal domain that HBD1 lacks.
We evaluated two concentrations of every peptide (2.5 and 12.5 μM) and 4 NaCl concentrations (0, 50, 100, and 200 mM). Antibacterial activity of 3NI against H. pylori started at concentrations as low as 2.5 μM in the presence of at least 200 mM NaCl.

## HBD1: human beta-defensin 1, constitutively synthesized; only mentioned in background, not tested here (DHYNCVSSGGQCLYSACPIFTKIQGTCYRGKAKCCK; not fully specified; ends and bridges not checked; UniProt P60022 33-68, looked up)
[1]
  antimicrobial activity at high NaCl concentrations: reduced by high NaCl concentrations

## QKYYC^1RVRGGRC^2AVLSC^3LPKEEQIGKC^4STRGRKC^5C^6RRKK (bicyclic or more) [3N]
[2]; 12.5 μM peptide, 0, 50, 100 and 200 mM NaCl, 3 independent experiments (Fig 4)
  antibacterial activity against H. pylori at 12.5 μM: little antibacterial effect

## ELDRIC^1GYGTARC^2RKK-C^3RSQEYRIGRC^4PNTYAC^5C^6LRK (bicyclic or more) [HBD4, human beta-defensin 4, purchased from Peptides International]
[1]
  antimicrobial activity at high NaCl concentrations: reduced by high NaCl concentrations

## KYYC^1RVRGGRC^2AVLSC^3PIFTKIQGTC^4STRGRKC^5C^6RRKK (bicyclic or more) [3NI]
[2]; 2.5 and 12.5 μM, 0, 50, 100 and 200 mM NaCl (Fig 4 title)
  antibacterial activity against H. pylori in contrast to wild-type peptides: increased antibacterial activity
[2]; in the presence of at least 200 mM NaCl, CFU assay, peptides tested at 2.5 and 12.5 μM, triplicate
  concentration at which antibacterial activity against H. pylori started: 2.5 µM
[1]; earlier work of the authors
  resistance of killing activity to high NaCl concentrations: resistant to high NaCl concentrations

## GIGDPVTC^1LKSGAIC^2HPVFC^3PRRYKQIGTC^4GLPGTKC^5C^6KKP (bicyclic or more) [HBD2, human beta-defensin 2, purchased from Peptides International]
[1]
  antimicrobial activity at high NaCl concentrations: reduced by high NaCl concentrations

## GIINTLQKYYC^1RVRGGRC^2AVLSC^3LPKEEQIGKC^4STRGRKC^5C^6RRKK (bicyclic or more) [HBD3, human beta-defensin 3, purchased from Peptides International]
[1]
  antimicrobial activity at high NaCl concentrations: still active up to 150 mM NaCl concentrations
